Literature values, collected in PMC10967909, “Targeted Delivery of Abaloparatide to Spinal Fusion Site Accelerates Fusion Process in Rats” (Biomedicines, 2024).

B1: Ab46-D-Glu20: variant of abaloparatide linked to a linear 20 mer of D-glutamic acid that naturally accumulates on exposed hydroxyapatite (protein)
chain: AVSEHQLLHDKGKSIQDLRRRELLEKLLAKLHTAEIRATSEVSPNSEEEEEEEEEEEEEEEEEEEE
modifications: The C-terminal 20 Glu are all D-residues (linear D-Glu20, described in the text as a 20 mer of D-glutamic acid); Ab46 is tak

How the values were obtained:
PTH1R (UMR-106 cells) = target: T1, PTH1R (UMR-106 cells) (Rattus norvegicus, UniProt P25961); conditions: UMR 106 cells treated with drug for 1 h; Figure 2A legend, adapted; ref Low et al., 2022 [20]; read-out: EC50 (cAMP Glo assay)
T1 construct: evaluated in UMR-106 cells (ATCC, Manassas, VA, USA) which express PTH1R; host or cells: UMR-106 cells
T1 sequence (P25961 27-591): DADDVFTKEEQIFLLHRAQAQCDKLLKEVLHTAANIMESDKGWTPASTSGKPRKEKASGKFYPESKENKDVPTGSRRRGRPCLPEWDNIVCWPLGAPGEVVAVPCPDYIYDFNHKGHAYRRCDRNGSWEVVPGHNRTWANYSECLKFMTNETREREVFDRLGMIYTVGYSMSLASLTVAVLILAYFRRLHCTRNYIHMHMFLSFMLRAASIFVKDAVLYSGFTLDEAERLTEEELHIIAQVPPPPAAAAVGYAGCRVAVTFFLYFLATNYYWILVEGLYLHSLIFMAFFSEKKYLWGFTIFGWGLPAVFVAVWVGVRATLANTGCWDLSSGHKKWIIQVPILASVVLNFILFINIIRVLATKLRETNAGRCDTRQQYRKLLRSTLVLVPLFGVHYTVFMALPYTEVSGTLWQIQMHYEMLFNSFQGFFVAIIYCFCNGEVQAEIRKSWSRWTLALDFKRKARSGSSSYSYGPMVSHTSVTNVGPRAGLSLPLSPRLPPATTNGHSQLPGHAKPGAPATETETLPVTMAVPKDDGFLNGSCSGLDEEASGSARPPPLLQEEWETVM

[1] = Description: A second question that logically arose is whether abaloparatide constituted the ideal payload for accelerating the fusion process. Although the PTH1R agonist, abaloparatide, has been well established as a bone anabolic agent, it is only clinically approved for treating osteoporosis. Most of abaloparatide’s applications have been limited to promoting systemic changes throughout the skeleton to reduce fracture risk.

Row | Molecule | EC50 (PTH1R (UMR-106 cells)) [nM] | trabecular bone growth, clinical ([1]; clinically) | fracture repair efficacy of nontargeted abaloparatide ([1]; past efforts, ref not given) | trabecular bone growth, preclinical ([1]; preclinically)
1 | abaloparatide | 0.66 | promote trabecular bone growth | unsuccessful due to the lack of efficacy at systemically tolerable doses | promote trabecular bone growth
2 | B1 | 0.48 | – | – | –
